Article PMC5681660, “Reduced hepatitis B and D viral entry using clinically applied drugs as novel inhibitors of the bile acid transporter NTCP” (Scientific Reports, 2017)
Where a name gives a salt, the structure may show the parent alone. Read-outs that look alike come from different tables or passages of the source.

How the values were obtained:
human NTCP [1] = biological target: T1, human NTCP (Homo sapiens, UniProt Q14973); experiment: Screening fluorescent competitive Myrcludex B-FITC binding assay (96-well, 10 µM drug)
T1 sequence (Q14973 1-349): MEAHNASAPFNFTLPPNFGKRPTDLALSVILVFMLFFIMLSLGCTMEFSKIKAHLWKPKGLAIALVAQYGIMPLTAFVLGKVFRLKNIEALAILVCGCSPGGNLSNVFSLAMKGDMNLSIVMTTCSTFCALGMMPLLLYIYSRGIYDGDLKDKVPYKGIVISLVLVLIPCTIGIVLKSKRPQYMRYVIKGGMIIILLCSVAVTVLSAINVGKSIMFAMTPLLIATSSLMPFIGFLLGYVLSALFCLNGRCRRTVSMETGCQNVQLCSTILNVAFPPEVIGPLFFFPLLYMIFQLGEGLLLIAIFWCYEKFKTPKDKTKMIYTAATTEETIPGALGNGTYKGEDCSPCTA

human NTCP [2] = biological target: T1, human NTCP; experiment: Screening taurocholate uptake assay (96-well, [14C]taurocholate, 10 µM drug)
[3] = Prestwick library screen, 10 µM drug, B-score of Myrcludex B-FITC binding
[4] = Prestwick library screen, 10 µM drug, B-score of taurocholate uptake
[5] = combined ranking from functional and binding assay B-scores
[6] = screen, 10 µM drug, Myrcludex B-FITC binding
[7] = combined ranking from functional and binding screening assays
[8] = screen, 10 µM drug, taurocholate uptake
[9] = Prestwick library screen, Myrcludex B-FITC binding, 10 µM drug
[10] = Prestwick library screen, taurocholate uptake, 10 µM drug
[11] = ranking score beside the functional and binding assay B-scores of the screen

Row | Compound | B-score binding assay (human NTCP [1]; [6]) | Ranking score (human NTCP [2]; [7]) | B-score functional assay (human NTCP [2]; [8]) | B-score binding assay (human NTCP [1]; [9]) | B-score functional assay (human NTCP [2]; [10]) | Ranking score (human NTCP [2]; [11]) | other results
1 | CC(Cc1cccc(C(F)(F)F)c1)NCCOC(=O)c1ccccc1 (stereo not drawn) [Benfluorex] | – | – | – | – | – | – | B-score binding assay (human NTCP [1]; [3]): 1.025; B-score functional assay (human NTCP [2]; [4]): 0.848; Ranking score (human NTCP [2]; [5]): 1033.89
2 | CCCCOc1cc(C(=O)OCCN(CC)CC)ccc1N [Benoxinate hydrochloride] | -1.11 | 454.623 | 0.537 | – | – | – | –
3 | O=C(CCCN1CCC(n2c(O)nc3ccccc32)CC1)c1ccc(F)cc1 [Benperidol] | -1.201 | 422.659 | 0.351 | – | – | – | –
4 | CC1(C)S[C@@H]2[C@H](NC(=O)Cc3ccccc3)C(=O)N2[C@H]1C(=O)O.CC1(C)S[C@@H]2[C@H](NC(=O)Cc3ccccc3)C(=O)N2[C@H]1C(=O)O.c1ccc(CNCCNCc2ccccc2)cc1 [Benzathine benzylpenicillin] | – | – | – | 0.21 | -0.072 | 672.134 | –
5 | CCCCNc1ccc(C(=O)OCCOCCOCCOCCOCCOCCOCCOCCOCCOC)cc1 [Benzonatate] | – | – | – | – | – | – | B-score binding assay (human NTCP [1]; [3]): 2.274; B-score functional assay (human NTCP [2]; [4]): 0.062; Ranking score (human NTCP [2]; [5]): 933.857
6 | O=C(Oc1cccc2cccnc12)c1ccccc1 [Benzoxiquine] | -0.876 | 381.13 | -0.093 | – | – | – | –
7 | NS(=O)(=O)c1cc2c(cc1Cl)N=C(CSCc1ccccc1)NS2(=O)=O [Benzthiazide] | – | – | – | 0.39 | -0.047 | 714.84 | –
8 | CC1(C)S[C@@H]2[C@H](NC(=O)Cc3ccccc3)C(=O)N2[C@H]1C(=O)O [Benzylpenicillin sodium] | -1.247 | 344.346 | -0.043 | – | – | – | –
9 | C[N+](C)(CCOc1ccccc1)Cc1ccccc1.O=C([O-])c1cc2ccccc2cc1O [Bephenium hydroxynaphthoate] | -0.482 | 452.073 | -0.101 | – | – | – | –
10 | CC(C)COCC(CN(Cc1ccccc1)c1ccccc1)N1CCCC1 (stereo not drawn) [Bepridil hydrochloride] | -1.626 | 392.989 | 1.07 | – | – | – | –
11 | Cl.N[C@@H]1CCCCN(c2c(F)cc3c(=O)c(C(=O)O)cn(C4CC4)c3c2Cl)C1 [Besifloxacin hydrochloride] | – | – | – | – | – | – | B-score binding assay (human NTCP [1]; [3]): 1.112; B-score functional assay (human NTCP [2]; [4]): 1.274; Ranking score (human NTCP [2]; [5]): 1087.71
12 | C[C@H]1C[C@H]2[C@@H]3CCC4=CC(=O)C=C[C@]4(C)[C@@]3(F)[C@@H](O)C[C@]2(C)[C@@]1(O)C(=O)CO [Betamethasone] | – | – | – | -0.13 | 0.975 | 747.052 | –
13 | NCCc1cc[nH]n1 [Betazole hydrochloride] | – | – | – | 1.024 | 0.019 | 836.299 | –
14 | CC(C[N+](C)(C)C)OC(N)=O (stereo not drawn) [Bethanechol chloride] | – | – | – | – | – | – | B-score binding assay (human NTCP [1]; [3]): 0.661; B-score functional assay (human NTCP [2]; [4]): 1.898; Ranking score (human NTCP [2]; [5]): 1067.05
15 | CC(C)(Oc1ccc(CCNC(=O)c2ccc(Cl)cc2)cc1)C(=O)O [Bezafibrate] | 0.184 | 430.871 | -1.123 | – | – | – | –
16 | COc1ccccc1Oc1c(NS(=O)(=O)c2ccc(C(C)(C)C)cc2)nc(-c2ncccn2)nc1OCCO [Bosentan] | – | – | – | 0.008 | 0.07 | 688.78 | –
17 | CC[N+](C)(C)Cc1ccccc1Br [Bretylium tosylate] | 1.504 | 436.134 | -1.625 | – | – | – | –
18 | Brc1c(NC2=NCCN2)ccc2nccnc12.O=C(O)C(O)C(O)C(=O)O [Brimondine L-Tartrate] | -0.57 | 294.551 | -1.091 | – | – | – | –

Row | Compound | B-score binding assay (human NTCP [1]; [6]) | Ranking score (human NTCP [2]; [7]) | B-score functional assay (human NTCP [2]; [8]) | B-score binding assay (human NTCP [1]; [9]) | B-score functional assay (human NTCP [2]; [10]) | Ranking score (human NTCP [2]; [11]) | other results
19 | CCN[C@H]1CN(CCCOC)S(=O)(=O)c2sc(S(N)(=O)=O)cc21 [Brinzolamide] | – | – | – | 0.124 | 0.266 | 792.227 | –
20 | CC(C)C[C@H]1C(=O)N2CCC[C@H]2[C@]2(O)O[C@](NC(=O)[C@@H]3C=C4c5cccc6[nH]c(Br)c(c56)C[C@H]4N(C)C3)(C(C)C)C(=O)N12.CS(=O)(=O)O [Bromocryptine mesylate] | -0.252 | 349.571 | -0.957 | – | – | – | –
21 | CCN(CC)CCNC(=O)c1cc(Br)c(N)cc1OC [Bromopride] | – | – | – | – | – | – | B-score binding assay (human NTCP [1]; [3]): 1.459; B-score functional assay (human NTCP [2]; [4]): 0.033; Ranking score (human NTCP [2]; [5]): 880.053
22 | O=C(CCCN1CCC(O)(c2ccc(Br)cc2)CC1)c1ccc(F)cc1 [Bromperidol] | – | – | – | -0.002 | 0.496 | 757.533 | –
23 | COc1cc(OC)c(C(=O)CCCN2CCCC2)c(OC)c1.Cl [Buflomedil hydrochloride] | – | – | – | -0.086 | 2.687 | 823.499 | –
24 | CCCCNc1cc(C(=O)O)cc(S(N)(=O)=O)c1Oc1ccccc1 [Bumetanide] | – | – | – | – | – | – | B-score binding assay (human NTCP [1]; [3]): 1.043; B-score functional assay (human NTCP [2]; [4]): 0.161; Ranking score (human NTCP [2]; [5]): 907.588
25 | CCCCN(CCCC)CCCOC(=O)c1ccc(N)cc1 [Butacaine] | – | – | – | 0.529 | -0.185 | 672.37 | –
26 | C=CCC1(CC(C)C)C(=O)NC(=O)NC1=O [Butalbital] | – | – | – | – | – | – | B-score binding assay (human NTCP [1]): 2.017; B-score functional assay (human NTCP [2]): -0.027; Ranking score (human NTCP [2]): 849.583
27 | CCCCOC(=O)c1ccc(N)cc1 [Butamben] | – | – | – | – | – | – | B-score binding assay (human NTCP [1]; [3]): 1.315; B-score functional assay (human NTCP [2]; [4]): 0.768; Ranking score (human NTCP [2]; [5]): 1050.86
28 | CN(Cc1ccc(C(C)(C)C)cc1)Cc1cccc2ccccc12 [Butenafine Hydrochloride] | – | – | – | – | – | – | B-score binding assay (human NTCP [1]; [3]): 0.435; B-score functional assay (human NTCP [2]; [4]): 1.115; Ranking score (human NTCP [2]; [5]): 986.495
29 | CCCCOC(=O)c1ccc(O)cc1 [Butylparaben] | – | – | – | -0.593 | 5.239 | 668.543 | –
30 | CCCC[N+]1(C)[C@@H]2C[C@@H](OC(=O)[C@H](CO)c3ccccc3)C[C@H]1[C@@H]1O[C@@H]12.[Br-] (stereo partly drawn) [Butylscopolammonium (n-) bromide] | -0.108 | 409.241 | -0.739 | – | – | – | –
31 | Cn1c(=O)c2c(ncn2C)n(C)c1=O [Caffeine] | – | – | – | 0.154 | 0.363 | 818.709 | –
32 | CC[C@@]1(O)C(=O)OCc2c1cc1n(c2=O)Cc2cc3ccccc3nc2-1 [Camptothecine (S,+)] | – | – | – | – | – | – | B-score binding assay (human NTCP [1]; [3]): 0.08; B-score functional assay (human NTCP [2]; [4]): 0.986; Ranking score (human NTCP [2]; [5]): 879.695
33 | CCN(CC)CCNC(C(=O)OCCC(C)C)c1ccccc1.Cl.Cl (stereo not drawn) [Camylofine chlorhydrate] | – | – | – | – | – | – | B-score binding assay (human NTCP [1]; [3]): 0.138; B-score functional assay (human NTCP [2]; [4]): 1.768; Ranking score (human NTCP [2]; [5]): 947.253
34 | CCOc1nc2cccc(C(=O)O)c2n1Cc1ccc(-c2ccccc2-c2nnn[nH]2)cc1 [Candesartan] | – | – | – | 0.128 | 0.287 | 798.474 | –
35 | C[C@]12CCC(=O)C=C1C=C[C@@H]1[C@@H]2CC[C@@]2(C)[C@H]1CC[C@@]2(O)CCC(=O)[O-].[K+] [Canrenoic acid potassium salt] | – | – | – | 0.007 | 0.356 | 751.562 | –
